Assay results from publication PMC6934184, “Selective DNA-PKcs inhibition extends the therapeutic index of localized radiotherapy and chemotherapy” (The Journal of Clinical Investigation, 2019).

Molecular target: T1, CAMKK2 (CaMKK beta) (Homo sapiens, UniProt Q96RR4)
T1 construct: purchased Thermo Fisher Scientific (Life Technologies) SelectScreen
Assay: SelectScreen LanthaScreen
Format: binding
Settings: read-out: % displacement
How it was run: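 Percent values come from Thermo SelectScreen profiling of NU5455, combining activity and binding assays. CSF1R was run in Z'LYTE format at Km app ATP, and CAMK1 in Adapta format with ATP listed at 10.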

T1 sequence (Q96RR4 whole entry): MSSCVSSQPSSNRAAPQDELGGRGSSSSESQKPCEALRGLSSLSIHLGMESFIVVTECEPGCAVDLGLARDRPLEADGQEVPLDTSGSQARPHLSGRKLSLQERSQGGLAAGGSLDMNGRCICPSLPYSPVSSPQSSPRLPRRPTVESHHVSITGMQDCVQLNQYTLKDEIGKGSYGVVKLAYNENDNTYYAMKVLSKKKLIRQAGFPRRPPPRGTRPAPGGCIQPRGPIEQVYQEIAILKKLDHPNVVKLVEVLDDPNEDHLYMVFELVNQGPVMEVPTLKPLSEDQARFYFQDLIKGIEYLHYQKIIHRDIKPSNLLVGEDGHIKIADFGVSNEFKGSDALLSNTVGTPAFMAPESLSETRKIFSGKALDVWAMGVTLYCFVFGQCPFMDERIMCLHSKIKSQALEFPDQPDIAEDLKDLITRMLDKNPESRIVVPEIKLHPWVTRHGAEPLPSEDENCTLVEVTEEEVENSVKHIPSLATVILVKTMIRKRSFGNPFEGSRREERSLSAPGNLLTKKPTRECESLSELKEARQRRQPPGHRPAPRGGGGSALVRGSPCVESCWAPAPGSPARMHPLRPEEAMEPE

Work on CN(C(=O)CN1CCOCC1)c1ccc2sc3c(-c4cccc5c(=O)cc(N6CC7CCC(C6)O7)oc45)cccc3c2c1 [NU5455] yielded an inhibition at 1 µM of 0.9%.
